# Measured values as given in publication PMC8945041 (Biomedicines, 2022).
# Like-named read-outs stand apart in the source and are kept apart here.
# Key:
# [1] = system: POPC and POPC:Chol (2:1) LUV, erythrocytes and PBMCs; assay type: binding, human
# [2] = pH 7.4
# [3] = pH 7.4; remark: listed apart in the source
# [4] = system: Erythrocytes; assay type: binding, human; settings: for Kd: read-out: Kd (apparent dissociation constant), Erythrocytes
# [5] = system: PBMCs; assay type: binding, human; settings: for Kd: read-out: Kd (apparent dissociation constant), PBMCs
compound,measurement,setting,value
CC(C)CCC[C@@H](C)[C@H]1CC[C@H]2[C@@H]3CC=C4C[C@@H](O)CC[C@]4(C)[C@H]3CC[C@]12C [cholesterol],change in membrane dipole potential (di-8-ANEPPS),[1],no changes in dipole potential were observed
VIKI–GSGSG-C-dPEG4–Cys–(CH2CONH2) [VIKI-dPEG4],"maximum fluorescence emission wavelength, free in solution",[2],356 nm
same,secondary structure by CD,[3],random coil
VIKI–GSGSG–C-dPEG4–Cys-(PEG4-bis-tocopherol) [VIKI-dPEG4-bisToco],"Rmin, Erythrocytes",[4],−0.22 ± 0.01
same,Kd,[4],90 ± 30 nM
same,"Rmin, PBMCs",[5],−0.27 ± 0.01
same,Kd,[5],180 ± 40 nM
VIKI–GSGSG–C-dPEG4–Cys–(PEG4-bis-cholesterol) [VIKI-dPEG4-bisChol],"Rmin, Erythrocytes",[4],−0.36 ± 0.01
same,Kd,[4]; 1.4% DMSO,70 ± 20 nM
same,"Rmin, PBMCs",[5],−0.24 ± 0.01
same,Kd,[5]; 1.4% DMSO,220 ± 50 nM
VIKI–GSGSG–C-dPEG4–Cys–cholesterol [VIKI-dPEG4-Chol],"Rmin, Erythrocytes",[4],−0.33 ± 0.01
same,Kd,[4]; 1.4% DMSO,130 ± 30 nM
same,"Rmin, PBMCs",[5],−0.23 ± 0.02
same,Kd,[5]; 1.4% DMSO,300 ± 120 nM
VIKI–GSGSG–C-dPEG4–Cys–tocopherol [VIKI-dPEG4-Toco],"Rmin, Erythrocytes",[4],−0.30 ± 0.01
same,Kd,[4],140 ± 30 nM
same,"Rmin, PBMCs",[5],−0.29 ± 0.02
same,Kd,[5],510 ± 120 nM
tocopherol,change in membrane dipole potential (di-8-ANEPPS),[1],no changes in dipole potential were observed
